Test in all cases: agar diffusion method using a paper disk
Background: A growth-free zone around the sample is the usual read-out of agar diffusion tests.

The subject of assay [1] is Staphylococcus aureus (KCTC1621). The settings on record: 2.5 mg/ml, 48 hours.
Procedure: (§1) In order to measure the antibacterial activities of the Cannabis sativa L. extract (CE) and extract mixtures AM1 to AM6 produced in Production Example 1, a modification of the agar diffusion method (Piddock, L. J. V, Techniques used for the determination of antimicrobial resistance and sensitivity in bacteria, J. Appl. Bacteriol, 68, p. 307, 1990) using a paper disk was performed as follows.
(§2) The bacterial strains were used after subculture (Candida albicans: 24° C., Bacillus subtilis: 30° C., Streptococcus mutans: 37° C., Staphylococcus aureus: 37° C., and Escherichia coli: 37° C.).
(§3) One loop of each of the prepared strains was taken and inoculated in 5 ml of saline, and 1 ml of each of the active solutions was inoculated into a 4 to 5-mm-thick medium (Candida albicans—YM Agar (271210. BD), Bacillus subtilis—Nutrient Agar (213000 BD), Streptococcus mutans—Brain Heart (241830 BD), Staphylococcus aureus—Tryptic Soy Agar (236950 BD), Escherichia coli—Nutrient Agar (213000 BD); incubator: EYELA Multi-Thermo incubator MTI-202), and then spread evenly with a bent glass rod. […]
(§4) The solvent of each injected extract mixture was volatilized, and incubation was performed at 37° C. for 48 hours. Then, the diameter of the inhibition zone formed around each paper disc was measured. […]
For assay [2], the system named is Streptococcus mutans (KCTC3065).
Procedure: as §1, §2, §3, §4
The subject of assay [3] is Escherichia coli (KCTC7039). The settings on record: 2.5 mg/ml, 48 hours.
Procedure: as §1, §2, §3, §4
For assay [4], the system named is Candida albicans (KCTC7270). The settings on record: 2.5 mg/ml, 48 hours.
Procedure: as §1, §2, §3, §4
In assay [5] the test system is Bacillus subtilis (KCTC1021). The settings on record: 2.5 mg/ml, 48 hours.
Procedure: as §1, §2, §3, §4

In the case of `COc1ccc(O)c(C(C)(C)C)c1` [BHA, butylated hydroxyanisole], the Inhibition zone in assay [1] stood at 16.0 mm; in assay [2] (Streptococcus mutans, 2.5 mg/ml, 48 hours) it was 3.5 mm; in assay [3], 18.4 mm; in assay [4], 16.0 mm; in assay [5], 16.6 mm. In addition, in assay [2] (against S. mutans), the “antibacterial effect (in words)” value is recorded as “little antibacterial effect”.

Values taken from patent US20220016193A1, “ANTIBACTERIAL AND ANTIVIRUS COMPOSITION COMPRISING Extract of CANNABIS SATIVA L” (FAMENITY CO., LTD., priority 2020, published 2022).
